In patent US12239643B2, “Therapeutic agent for inflammatory diseases, autoimmune diseases, fibrotic diseases, and cancer diseases” (MEIJI SEIKA PHARMA CO., LTD., priority 2018, dated 2025):
Like-named read-outs stand apart in the source and are kept apart here.

Tests used:
[1] = tested on: oxazolone-induced auricle edema, BALB/c mice; test: Hapten repeated application mouse chronic dermatitis model (oral, topical); assay type: in vivo; conditions: for Mouse Chronic Dermatitis Model (Test Example 8), Oral: edema suppression rate: 0.3 to 10 mg/kg twice a day for 10 days; for Mouse Chronic Dermatitis Model (Test Example 8), Topical: edema suppression rate: 20 μL of 0.3 to 3% solution once or twice a day for 10 days
Summary of the method: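 Female BALB/c mice aged 7–8 weeks were sensitised abdominally with 3% oxazolone, then challenged on both ears with 1% oxazolone. From week 1, test compound was given for 10 days orally at 0.3–10 mg/kg twice daily in 0.5% MC, or topically at 0.3–3% once or twice daily. Ear-thickness change measured by dial gauge gave edema suppression versus vehicle control.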

[2] = tested on: PDE4; test: Evaluation of PDE4 inhibitory activity, scintillation proximity assay; assay type: biochemical; conditions: for PDE4 inhibitory activity: summary in words of Tables 57 to 69
Summary of the method: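 IC50 was derived from inhibition curves, referenced to an enzyme-free blank and a DMSO-only control. Compound, PDE4 preparation and tritiated cAMP reacted 120 min at RT in Tris-HCl buffer (pH 7.4) with MgCl2, EGTA and BSA; YSi-SPA beads with ZnSO4 bound product before scintillation counting.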

[3] = Hepatic metabolic stability (rat liver microsome method); assay type: in vitro ADME; conditions: rat liver microsomes 0.5 mg/mL, test substance 1 μM, NADPH 1 mM, 37° C., 30 minutes
Summary of the method: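 Scored by % parent left after 30 min (30 min/0 min ×100, LC-MS), banded A ≥75%, B 60–<75%, C 45–<60%, D <45%. Incubation: 1 μM compound, 0.5 mg/mL rat microsomes, pH 7.4 phosphate buffer, 37° C, 5 min preincubation, NADPH 1 mM started, acetonitrile quench.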

[4] = tested on: TGF-β; test: TGF-β inhibitory activity using THP1 cells differentiated into macrophages; assay type: cell-based; conditions: Homo sapiens, read-out: TFG-β Inhibitory Activity (Test Example 6)
Procedure: The TGF-β inhibitory activity was measured using THP1 cells as follows. First, THP1 cells were seeded on a 24-well culture plate at […], and culture was carried out overnight at 37° C. and 5% CO2 in RPMI-1640 medium (containing 10% fetal bovine serum, penicillin, and streptomycin) supplemented with 100 nM phorbol myristate acetate. After that, the cells were differentiated into macrophages by changing to RPMI-1640 medium without phorbol myristate acetate, followed by further culture at 37° C. under 5% CO2 overnight. Next, the THP1 culture plate was washed once with PBS(−) 1 mL/well, and then the test compound and lipopolysaccharide (final concentration 1 μg/mL) were added, followed by culture at 37° C. under 5% CO2 for about 7 hours. After culturing, the entire amount of the medium was collected, and the amount of TGF-β in the centrifuged supernatant was quantified by the sandwich ELISA method. The non-addition of lipopolysaccharide was used as a blank, and the control was obtained by adding only dimethyl sulfoxide instead of the test compound, and the inhibition rate of the test compound against the control was calculated by the following formula. Inhibition Rate (%)={1−(Value at Addition of Each Test Compound−Blank Value)/(Control Value−Blank Value)}×100
In addition, the TGF-β inhibitory activity (concentration for the inhibition rate of 50%) of the test compound was calculated from the inhibition curves based on the inhibition rate for various concentrations of the test compound.
The measurement results obtained by measuring the TFG-β inhibitory activity (50% inhibitory concentration) of the test compounds by the above method were evaluated in accordance with the following evaluated basis; A: less than 1 μM, and B: 1 μM or more.

[5] = finer grading of compounds rated A in Evaluation 1, read-out: PDE4 Inhibitory Activity (Evaluation 2)
[6] = THP-1, THP1 cells differentiated into macrophages, lipopolysaccharide 1 μg/mL, about 7 hours
[7] = scintillation proximity assay, read-out: PDE4 Inhibitory Activity (Evaluation 1; concentration for the inhibition rate of 50%)

Row | SMILES | Mouse Chronic Dermatitis Model (Test Example 8), Oral: edema suppression rate [1] | Mouse Chronic Dermatitis Model (Test Example 8), Topical: edema suppression rate [1] | IC50 [2, 5] [µM] | IC50 ([2]; scintillation proximity assay, class symbols of Evaluation 1, read-out: PDE4 Inhibitory Activity (concentration for the inhibition rate of 50%, IC50), Evaluation 1) [µM] | PDE4 inhibitory activity [2] | Residual ratio (% remaining for 30-minute reaction) [3] | IC50 [4, 6] [µM] | IC50 ([4]; THP-1, 7 h) [µM] | IC50 [2, 7] [µM]
1 | FC(F)(F)Oc1ccc(-c2nccs2)c2oc(N3CC4CC(C3)N4)nc12 [Example 29, 2-(3,6-Diazabicyclo[3.1.1]heptan-3-yl)-7-(thiazol-2-yl)-4-(trifluoromethoxy)benzo[d]oxazole] | A (A: 70% or more) | A (A: 100% or more) | 0.001 to 0.011 | < 0.1 | particularly excellent | B (B: 60% or more and less than 75%) | < 1 | – | –
2 | CCOc1cc([C@@H](CS(C)(=O)=O)N2C(=O)c3cccc(NC(C)=O)c3C2=O)ccc1OC [apremilast, reference compound] | B (B: 40% or more and less than 70%) | – | 0.011 to 0.1 | – | – | – | – | > 1 | –
3 | CC(C)(O)C(F)(F)Oc1ccc(-c2nccs2)c2oc(N3CC4CC(C3)N4)nc12 [Example 248, 1-((2-(3,6-Diazabicyclo[3.1.1]heptan-3-yl)-7-(thiazol-2-yl)benzo[d]oxazol-4-yl)oxy)-1,1-difluoro-2-methylpropan-2-ol] | A (A: 70% or more) | A (A: 100% or more) | ≤ 0.001 | – | particularly excellent | A (A: a % remaining rate of 75% or more) | < 1 | – | < 0.1
4 | CC(O)C(F)(F)Oc1ccc(-c2nccs2)c2oc(N3CC4CC(C3)N4)nc12 (single isomer, unassigned) [Example 252, 1-((2-(3,6-Diazabicyclo[3.1.1]heptan-3-yl)-7-(thiazol-2-yl)benzo[d]oxazol-4-yl)oxy)-1,1-difluoropropan-2-ol] | A (A: 70% or more) | A (A: 100% or more) | ≤ 0.001 | – | particularly excellent | A (A: a % remaining rate of 75% or more) | – | – | < 0.1
